Data on one molecule can be found in US20200129499A1, “COMBINATION OF TASQUINIMOD OR A PHARMACEUTICALLY ACCEPTABLE SALT THEREOF AND A PD-1 AND/OR PD-L1 INHIBITOR, FOR USE AS A MEDICAMENT” (ACTIVE BIOTECH AB, priority 2015, published 2020).

For test [1], the system named is human prostate, breast, bladder and colon tumor xenografts. Particulars: pre-clinical models, Isaacs et al. 2013; cited from earlier work.
Test [2] concerns MBT-2 tumors. The test can be described thus: Subcutaneous MBT-2 tumor growth in mice, initial combination study (Example 1). It counts as in vivo, mouse. Here is the method:
Six to seven-week old C3H/HeN male mice were purchased from JANVIER Labs. MBT-2, a mouse bladder cancer cell line (M. S. Soloway., Intravesical and systemic chemotherapy in the management of superficial bladder cancer, Urol. Clin. North Am. 11 (4):623-635, 1984), was provided from JCRB Cell Bank and was cultured in Eagle's minimal essential medium (Life Technologies) supplemented with 10% fetal bovine serum.
1×10^6 cells were injected subcutaneously into the flanks of mice and were allowed to grow until tumors reached a volume between 40 and 130 mm^3 (around day 10-1 1 post tumor cell inoculation).
Tumor volumes in mm^3 were assessed by caliper measurements and were calculated by the formula=(Width)^2×Length 12.
As mentioned in Table 2, the mice were treated with tasquinimod (30 mg/kg) p.o. (per os, i.e. oral administration) twice a day. For the blockade of PD-L1, 200 μg of the […] (clone 10F.9G2; Bio-XCell) was administered i.p. (intraperitoneally) to mice every 3 days. All studies were approved by the Bioethics committee of IPSEN (CE2A) and by the French Ministry of Agriculture and Fisheries' veterinary services.

Test [3] deals with MBT-2 tumors. The test can be described thus: Differential mRNA expression (qRT-PCR) in established MBT-2 tumors (Table S1). The format is in vivo, mouse. As to the method: The relative mRNA expression of different genes was examined in MBT-2 tumors of treated animals with tasquinimod as compared to control group. Treatment started at day 11 post-tumor cell inoculation and qRT-PCR analysis was performed at day 15. Results are represented as mean fold-change compared with control. P values were evaluated using student test.
RNA extraction of murine CD1 1b+ was performed using the PicoPure® RNA Isolation Kit (Life Technologies). RNA in tumors was isolated from 100 μ ? -thick cryosections of OCT-embedded tumors using Trizol Reagent (Life Technologies). cDNAs were prepared using the High-Capacity cDNA Reverse Transcription Kit (Life Technologies) following the manufacturer's instructions. cDNA from CD1 1b+ isolated cells was pre-amplified (14 cycles) using the TaqMan PreAmp Master Mix (Life Technologies). Real time PCR (q-PCR) was performed with a two-step PCR protocol (95° C. for 10 min, followed by 40 cycles at 95° C. for 15 s and 60° C. for 1 min) using Taqman gene expression (Life Technologies). The probes that were used are documented in Table S2. Hmbs was used as “housekeeping” gene whose expression was correlated to other housekeeping quantified genes (e.g. Cyclophilin A). Expression levels were calculated as normalized ACt expression values between target gene and “housekeeping” genes.
On the technique in general: Quantitative PCR measures a nucleic acid by following its amplification.

The mark [4] stands for this setting: tasquinimod 30 mg/kg from day 11, qRT-PCR at day 15.

For `COc1cccc2c1c(O)c(C(=O)N(C)c1ccc(C(F)(F)F)cc1)c(=O)n2C` [tasquinimod, 4-hydroxy-5-methoxy-N,1-dimethyl-2-oxo-N-[4-(trifluoromethyl)phenyl]-1,2-dihydroquinoline-3-carboxamide], in test [1], the “efficacy as monotherapeutic agent against tumor xenografts” value was “effective as a monotherapeutic agent”. Further, the “Average of tumor volumes” value with MBT-2 tumors [2] (day 0 post tumor cell inoculation (before treatment)) came to 0 mm^3. Moreover, in the test with MBT-2 tumors [2] (day 10 post tumor cell inoculation), the “Average of tumor volumes” value came out at 49 mm^3. Further, the “Average of tumor volumes” value in the test with MBT-2 tumors [2] (day 11 post tumor cell inoculation) was 61 mm^3. Also, the “Average of tumor volumes” value in the test on MBT-2 tumors [2] (day 13 post tumor cell inoculation) is listed as 180 mm^3. In addition, in the test with MBT-2 tumors [2] (day 14 post tumor cell inoculation), the “Average of tumor volumes” value is recorded as 225 mm^3. Also, the “Average of tumor volumes” value in the test with MBT-2 tumors [2] (day 15 post tumor cell inoculation) is 309 mm^3. Besides, the “Average of tumor volumes” value in the test with MBT-2 tumors [2] (day 17 post tumor cell inoculation) worked out at 390 mm^3. Also, the “impact on tumor growth of MBT-2 tumors” value with MBT-2 tumors [2] (tasquinimod 30 mg/kg p.o. twice a day, antibody 200 μg i.p. every 3 days, from day 10-11) is “slight non-significant impact”. In addition, in the test with MBT-2 tumors [3] (established tumors, tasquinimod 30 mg/kg), the “mRNA expression of PD-L1 in MBT-2 tumors” value is on record as “increased”. Also, in the test on MBT-2 tumors [3] (setting [4]), the “Fold change tasquinimod/control, CCL5 mRNA” value amounted to 0.88; the “Fold change tasquinimod/control, CCL7 mRNA” value is reported as 0.90; the “Fold change tasquinimod/control, Ccl2 mRNA” value turned out to be 0.86; the “Fold change tasquinimod/control, Cd274/PD-L1 mRNA” value is 1.46. Also, in the test on MBT-2 tumors [3] (setting [4]), the “Fold change tasquinimod/control, Cxcl5 mRNA” value came out at 2.31; the “Fold change tasquinimod/control, Cxcl9 mRNA” value stood at 0.80; the “Fold change tasquinimod/control, Cxcl11 mRNA” value is 1.63; the “Fold change tasquinimod/control, II-12b mRNA” value was found to be 1.71. In the test on MBT-2 tumors [3] (setting [4]), the “Fold change tasquinimod/control, Ifng mRNA” value was 1.53; the “Fold change tasquinimod/control, Mrc1/CD206 mRNA” value was 0.90; the “Fold change tasquinimod/control, Nos2 mRNA” value was 1.76; the “Fold change tasquinimod/control, Serpinb2 mRNA” value stood at 3.65. The “Fold change tasquinimod/control, Tnf mRNA” value in the test on MBT-2 tumors [3] (setting [4]) came to 1.19.
